Assay results reported in the supplement of paper PMC10307832.

Tests used:
Experiment in all cases: relative viability (nuclei count vs DMSO), 5 days (fraction); higher = more cells survive
NCI-H2170 = tested on: NCI-H2170
How it was run: (§1)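 Lung cancer cell lines in 1536-well plates got either a single drug or a fixed anchor-drug dose together with five library-drug doses (not always all listed) in √10 steps, by pin tool, on the day after seeding. Nuclei were counted after 5 days, and relative viability is the treated-to-vehicle ratio of nuclei counts. Values are medians of duplicate plates.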

NCI-H2405 = tested on: NCI-H2405
How it was run: as §1

ChaGo-K-1 = tested on: ChaGo-K-1
How it was run: as §1

NCI-H3122 = tested on: NCI-H3122
How it was run: as §1

NCI-H1734 = tested on: NCI-H1734
How it was run: as §1

NCI-H1793 = tested on: NCI-H1793
How it was run: as §1

NCI-H2228 = tested on: NCI-H2228
How it was run: as §1

UMC-11 = tested on: UMC-11
How it was run: as §1

NCI-H1395 = tested on: NCI-H1395
How it was run: as §1

RERF-LC-KJ = tested on: RERF-LC-KJ
How it was run: as §1

CAL-12T = tested on: CAL-12T
How it was run: as §1

LC-2-ad = tested on: LC-2-ad
How it was run: as §1

NCI-H1651 = tested on: NCI-H1651
How it was run: as §1

NCI-H1755 = tested on: NCI-H1755
How it was run: as §1

NCI-H460 = tested on: NCI-H460
How it was run: as §1

LU99A = tested on: LU99A
How it was run: as §1

ABC-1 = tested on: ABC-1
How it was run: as §1

LOU-NH91 = tested on: LOU-NH91
How it was run: as §1

HCC-366 = tested on: HCC-366
How it was run: as §1

PC-3 [JPC-3] = tested on: PC-3 [JPC-3]
How it was run: as §1

EPLC-272H = tested on: EPLC-272H
How it was run: as §1

HCC-78 = tested on: HCC-78
How it was run: as §1

NCI-H2087 = tested on: NCI-H2087
How it was run: as §1

NCI-H1944 = tested on: NCI-H1944
How it was run: as §1

CC(C)Oc1cc(Nc2nc(N[C@@H](C)c3ccc(F)cn3)ncc2Cl)n[nH]1 [AZ23] + COc1cccc2cc(-c3nc([C@H]4CC[C@H](C(=O)O)CC4)n4ncnc(N)c34)[nH]c12 [OSI-027] (partner 0.5 µM)
relative viability (NCI-H2170; first compound 0.01 µM): 0.664
relative viability (NCI-H2170; first compound 0.03162 µM): 0.722
relative viability (NCI-H2170; first compound 0.3162 µM): 0.726
relative viability (NCI-H2405; first compound 0.01 µM): 0.555
relative viability (NCI-H2405; first compound 0.03162 µM): 0.667
relative viability (NCI-H2405; first compound 0.3162 µM): 0.614
relative viability (ChaGo-K-1; first compound 0.01 µM): 0.641
relative viability (ChaGo-K-1; first compound 0.03162 µM): 0.593
relative viability (ChaGo-K-1; first compound 0.3162 µM): 0.695
relative viability (NCI-H3122; first compound 0.01 µM): 1.12
relative viability (NCI-H3122; first compound 0.03162 µM): 1.12
relative viability (NCI-H3122; first compound 0.3162 µM): 1.12
relative viability (NCI-H1734; first compound 0.01 µM): 0.628
relative viability (NCI-H1734; first compound 0.03162 µM): 0.62
relative viability (NCI-H1734; first compound 0.3162 µM): 0.588
relative viability (NCI-H1793; first compound 0.01 µM): 0.226
relative viability (NCI-H1793; first compound 0.03162 µM): 0.303
relative viability (NCI-H1793; first compound 0.3162 µM): 0.28
relative viability (NCI-H2228; first compound 0.01 µM): 0.785
relative viability (NCI-H2228; first compound 0.03162 µM): 0.776
relative viability (NCI-H2228; first compound 0.3162 µM): 0.671
relative viability (UMC-11; first compound 0.01 µM): 0.429
relative viability (UMC-11; first compound 0.03162 µM): 0.505
relative viability (UMC-11; first compound 0.3162 µM): 0.494
relative viability (NCI-H1395; first compound 0.03162 µM): 0.708
relative viability (NCI-H1395; first compound 0.3162 µM): 0.655
relative viability (RERF-LC-KJ; first compound 0.01 µM): 0.592
relative viability (RERF-LC-KJ; first compound 0.03162 µM): 0.623
relative viability (RERF-LC-KJ; first compound 0.3162 µM): 0.616
relative viability (CAL-12T; first compound 0.03162 µM): 0.593
relative viability (CAL-12T; first compound 0.3162 µM): 0.778
relative viability (LC-2-ad; first compound 0.01 µM): 0.953
relative viability (LC-2-ad; first compound 0.03162 µM): 0.802
relative viability (LC-2-ad; first compound 0.3162 µM): 0.672
relative viability (NCI-H1651; first compound 0.03162 µM): 0.77
relative viability (NCI-H1651; first compound 0.3162 µM): 0.881
relative viability (NCI-H1755; first compound 0.01 µM): 0.639
relative viability (NCI-H1755; first compound 0.03162 µM): 0.809
relative viability (NCI-H1755; first compound 0.3162 µM): 0.771
relative viability (NCI-H460; first compound 0.01 µM): 0.382
relative viability (NCI-H460; first compound 0.03162 µM): 0.657
relative viability (NCI-H460; first compound 0.3162 µM): 0.885
relative viability (LU99A; first compound 0.01 µM): 0.264
relative viability (LU99A; first compound 0.03162 µM): 0.312
relative viability (LU99A; first compound 0.3162 µM): 0.286
relative viability (ABC-1; first compound 0.01 µM): 0.398
relative viability (ABC-1; first compound 0.03162 µM): 0.408
relative viability (ABC-1; first compound 0.3162 µM): 0.469
relative viability (LOU-NH91; first compound 0.01 µM): 0.692
relative viability (LOU-NH91; first compound 0.03162 µM): 0.753
relative viability (LOU-NH91; first compound 0.3162 µM): 0.704
relative viability (HCC-366; first compound 0.01 µM): 1.06
relative viability (HCC-366; first compound 0.03162 µM): 0.872
relative viability (HCC-366; first compound 0.3162 µM): 1.05
relative viability (PC-3 [JPC-3]; first compound 0.01 µM): 0.857
relative viability (PC-3 [JPC-3]; first compound 0.03162 µM): 0.71
relative viability (PC-3 [JPC-3]; first compound 0.3162 µM): 0.742
relative viability (EPLC-272H; first compound 0.01 µM): 0.238
relative viability (EPLC-272H; first compound 0.03162 µM): 0.275
relative viability (EPLC-272H; first compound 0.3162 µM): 0.256
relative viability (HCC-78; first compound 0.01 µM): 0.52
relative viability (HCC-78; first compound 0.03162 µM): 0.349
relative viability (HCC-78; first compound 0.3162 µM): 0.322
relative viability (NCI-H2087; first compound 0.01 µM): 0.675
relative viability (NCI-H2087; first compound 0.03162 µM): 0.477
relative viability (NCI-H2087; first compound 0.3162 µM): 0.459
relative viability (NCI-H1944; first compound 0.01 µM): 0.401
relative viability (NCI-H1944; first compound 0.03162 µM): 0.456
relative viability (NCI-H1944; first compound 0.3162 µM): 0.498
